Counter-ions that a name gives are not always drawn.
Target: T1, h5-HT5A receptor (Homo sapiens, UniProt P47898)
T1 construct: expressed in transfected cells; host or cells: HEK293
Assay: [3H]5-CT binding assay h5-HT5A
Settings: membranes from HEK293 cells expressing h5-HT5A, 2.5 nM [3H]5-CT; read-out: Binding affinity 5-HT5A (Ki)
Procedure: 1. [^3H]5-CT binding assay h5-HT5A
Membranes from HEK293-cells, which permanently express the h5-HT5A receptor gene, were incubated in 100 mM Tris-HCl-buffer (pH 7.7), containing 1 mM EDTA in the presence of 2.5 nM [^3H]5-CT (600 μl total volume). The total binding is defined as the binding which is observed when the membranes are incubated alone in the presence of the radioligand. The inhibition induced by the compound is determined by incubation of cell membranes in the presence of the radioligand, and of different concentrations of the compound of interest. Unspecific binding is defined by the binding of [^3H]5-CT, which is obtained by incubation of the membranes as for the total binding but in the presence of 10 μM methiothepine. Following an incubation of 75 minutes at 30° C. the membrane suspension is filtered through GF/B-filters, wrapped in 0.03% PEI, wherein a Skatron® harvest system is used. The radioactivity retained in the filter is quantified by liquid scintillation counting.
In both assays, different concentrations of the test substances are used, and the Ki or the IC50 values are determined.

T1 sequence (P47898 whole entry): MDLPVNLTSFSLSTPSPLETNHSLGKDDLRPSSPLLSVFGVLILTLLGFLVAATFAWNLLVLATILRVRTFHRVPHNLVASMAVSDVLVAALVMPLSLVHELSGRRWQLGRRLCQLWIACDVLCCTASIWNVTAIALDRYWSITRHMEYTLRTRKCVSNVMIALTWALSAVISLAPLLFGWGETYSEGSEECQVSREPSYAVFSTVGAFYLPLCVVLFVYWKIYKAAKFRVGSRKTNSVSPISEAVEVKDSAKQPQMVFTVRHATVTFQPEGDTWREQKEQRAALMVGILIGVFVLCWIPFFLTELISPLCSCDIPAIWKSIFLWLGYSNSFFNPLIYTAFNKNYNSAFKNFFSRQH

Compound	Ki
N=C(NCc1cccc(Cl)c1)Nc1nccs1 [Example 13, N-(3-chlorobenzyl)-N′-1,3-thiazole-2-ylguanidine hydrochloride]	> 0.5 µM
N-4H-chromeno[4,3-d][1,3]thiazole-2-yl-N′-(2,6-dimethoxybenzyl)guanidine [Example 222]	< 0.05 µM
COc1cccc(Cl)c1CNC(=N)Nc1nc(-c2ccc(F)cc2)c[nH]1 [Example 195, N-(2-chlor-6-methoxybenzyl)-N′-[4-(4-fluorphenyl)-1H-imidazole-2-yl]guanidine acetate]	< 0.05 µM
COc1ccccc1CNC(=N)Nc1nc(-c2cccc(F)c2)cs1 [Example 99, N-[4-(3-fluorophenyl)-1,3-thiazole-2-yl]-N′-(2-methoxybenzyl)guanidine]	0.05 to 0.5 µM
COc1cccc(OC)c1CNC(=N)Nc1nc(C2CCCN2C(=O)OC(C)(C)C)cs1 (stereo not drawn) [Example 120, tert-butyl 2-(2-{[[(2,6-dimethoxybenzyl)amino](imino)methyl]amino}-1,3-thiazole-4-yl)pyrrolidine-1-carboxylate]	0.05 to 0.5 µM
COc1cccc(OC)c1CNC(=N)Nc1nc(N2CCOCC2)cs1 [Example 167, 4-[2-{[[(2,6-dimethoxybenzyl)amino](imino)methyl]amino}-1,3-thiazole-4(5H)-yliden]morpholine-4-ium chloride]	0.05 to 0.5 µM
COc1cccc(OC)c1CNC(=N)Nc1nc(-c2ccc(OC(F)F)cc2)cs1 [Example 109, N-{4-[4-(difluoromethoxy)phenyl]-1,3-thiazole-2-yl}-N′-(2,6-dimethoxybenzyl)guanidine hydrobromide]	0.05 to 0.5 µM
COc1ccccc1CNC(=N)Nc1nc(-c2ccc(Cl)cc2)cs1 [Example 35, N-[4-(4-chlorophenyl)-1,3-thiazole-2-yl]-N′-(2-methoxybenzyl)guanidine]	> 0.5 µM
CCOC(=O)c1csc(NC(=N)NCc2c(OC)cccc2OC)n1 [Example 192, Ethyl 2-{[[(2,6-dimethoxybenzyl)amino](imino)methyl]amino}-1,3-thiazole-4-carboxylate acetate]	< 0.05 µM
COc1ccc(F)cc1-c1csc(NC(=N)NCc2c(OC)cccc2OC)n1 [Example 112, hydrobromide]	< 0.05 µM
COc1cccc(OC)c1CNC(=N)Nc1nc2c(s1)Cc1ccccc1-2 [Example 80, N-(2,6-dimethoxybenzyl)-N′-8H-indeno[1,2-d][1,3]thiazole-2-ylguanidine hydrobromide]	< 0.05 µM
COc1ccccc1CNC(=N)Nc1ccn(-c2ccccc2)n1 [Example 220, N-(2-methoxybenzyl)-N′-(1-phenyl-1H-pyrazole-3-yl)guanidine]	< 0.05 µM
COc1cccc(OC)c1CNC(=N)Nc1ncc[nH]1 [Example 177, N-(2,6-dimethoxybenzyl)-N′-1H-imidazole-2-ylguanidine acetate]	< 0.05 µM
COc1cccc(OC)c1CNC(=N)Nc1nc(-c2ccc(N3CCOCC3)cc2)cs1 [Example 65, N-(2,6-dimethoxybenzyl)-N′-[4-(4-morpholine-4-ylphenyl)-1,3-thiazole-2-yl]guanidine hydrobromide]	< 0.05 µM
COc1cccc(OC)c1CNC(=N)Nc1nc(-c2ccccc2F)cs1 [Example 70, N-(2,6-dimethoxybenzyl)-N′-[4-(2-fluorophenyl)-1,3-thiazole-2-yl]guanidine hydrobromide]	< 0.05 µM
COc1ccccc1CNC(=N)Nc1nc(-c2ccncc2)cs1 [Example 46, N-(2-methoxybenzyl)-N′-(4-pyridine-4-yl-1,3-thiazole-2-yl)guanidine]	< 0.05 µM
COc1cccc(OC)c1CNC(=N)Nc1nc(-c2ccc(S(C)(=O)=O)cc2)cs1 [Example 82, N-(2,6-dimethoxybenzyl)-N′-{4-[4-(methylsulfonyl)phenyl]-1,3-thiazole-2-yl}guanidine hydrobromide]	0.05 to 0.5 µM
COc1ccccc1CNC(=N)Nc1ccn(C)n1 [Example 214, N-(2-methoxybenzyl)-N′-(1-methyl-1H-pyrazole-3-yl)guanidine]	< 0.05 µM
COc1cccc(OC)c1CNC(=N)Nc1nc(C(=O)NCc2ccccc2)cs1 [Example 194, N-benzyl-2-{[[(2,6-dimethoxybenzyl)amino](imino)methyl]amino}-1,3-thiazole-4-carboxamide]	< 0.05 µM
COc1ccccc1CNC(=N)Nc1cc[nH]n1 [Example 205, N-(2-methoxybenzyl)-N′-1H-pyrazole-3-ylguanidine]	0.05 to 0.5 µM
COc1cccc(OC)c1CNC(=N)Nc1nc(-c2ccc(F)cc2Cl)cs1 [Example 116, N-[4-(2-chloro-4-fluorophenyl)-1,3-thiazole-2-yl]-N′-(2,6-dimethoxybenzyl)guanidine]	< 0.05 µM
COc1ccccc1CNC(=N)Nc1nc(-c2ccccc2F)cs1 [Example 98, N-[4-(2-fluorophenyl)-1,3-thiazole-2-yl]-N′-(2-methoxybenzyl)guanidine]	0.05 to 0.5 µM
COc1ccc2ccccc2c1CNC(=N)Nc1nc(-c2ccccc2)cs1 [Example 146, N-[(2-methoxy-1-naphthyl)methyl]-N′-(4-phenyl-1,3-thiazole-2-yl)guanidine]	0.05 to 0.5 µM
COc1cccc(OC)c1CNC(=N)Nc1nc(-c2ncccc2Cl)cs1 [Example 164, N-[4-(3-chloropyridine-2-yl)-1,3-thiazole-2-yl]-N′-(2,6-dimethoxybenzyl)guanidine]	< 0.05 µM
COc1ccccc1CN=C(N)Nc1nc(-c2ccccc2)ns1 [Example 106, N″-(2-methoxybenzyl)-N-(3-phenyl-1,2,4-thiadiazole-5-yl)guanidine (2E)-But-2-endioate]	> 0.5 µM

Results, then the compound that gave them:

Ki	Compound
< 0.05 µM	COc1cccc(OC)c1CNC(=N)Nc1nc(-c2ccccc2)cs1 [Example 2, N-(2,6-dimethoxybenzyl)-N′-(4-phenyl-1,3-thiazole-2-yl)guanidine]
< 0.05 µM	COc1ccccc1CNC(=N)Nc1ncc(C)s1 [Example 54, N-(2-methoxybenzyl)-N′-(5-methyl-1,3-thiazole-2-yl)guanidine (2E)-But-2-endioate]
< 0.05 µM	COc1cccc(OC)c1CNC(=N)Nc1nc(-c2ccccc2)c[nH]1 [Example 187, N-(2,6-dimethoxybenzyl)-N′-(4-phenyl-1H-imidazole-2-yl)guanidine acetate]
< 0.05 µM	COc1cccc(OC)c1CNC(=N)Nc1nc(-c2ccc(Cl)cn2)cs1 [Example 123, N-[4-(5-chloropyridine-2-yl)-1,3-thiazole-2-yl]-N′-(2,6-dimethoxybenzyl)guanidine acetate]
< 0.05 µM	COc1cccc(OC)c1CNC(=N)Nc1nc(C(=O)NC(C)C)cs1 [Example 196, 2-{[[(2,6-dimethoxybenzyl)amino](imino)methyl]amino}-N-isopropyl-1,3-thiazole-4-carboxamide]
< 0.05 µM	COc1cccc(OC)c1CNC(=N)Nc1nc(-c2ccc(F)cn2)cs1 [Example 144, N-(2,6-dimethoxybenzyl)-N′-[4-(5-fluoropyridine-2-yl)-1,3-thiazole-2-yl]guanidine]
< 0.05 µM	COc1cccc(OC)c1CNC(=N)Nc1nc(-c2ccc(F)cc2)c[nH]1 [Example 191, N-(2,6-dimethoxybenzyl)-N′-[4-(4-fluorophenyl)-1H-imidazole-2-yl]guanidine acetate]
< 0.05 µM	COc1cccc(OC)c1CNC(=N)Nc1nc2c(s1)CN(Cc1ccccc1)CC2 [Example 226, N-(5-benzyl-4,5,6,7-tetrahydro[1,3]thiazolo[5,4-c]pyridine-2-yl)-N′-(2,6-dimethoxybenzyl)guanidine]
< 0.05 µM	COc1cccc(Cl)c1CNC(=N)Nc1cc(C(C)(C)C)[nH]n1 [Example 213, N-(5-tert-butyl-1H-pyrazole-3-yl)-N′-(2-chloro-6-methoxybenzyl)guanidine]
< 0.05 µM	COc1cccc(OC)c1CNC(=N)Nc1nc(-c2cccc(Cl)c2)cs1 [Example 89, N-[4-(3-chlorophenyl)-1,3-thiazole-2-yl]-N′-(2,6-dimethoxybenzyl)guanidine hydrobromide]
< 0.05 µM	COc1cccc(F)c1CNC(=N)Nc1nc(-c2ccccc2)cs1 [Example 59, N-(2-fluoro-6-methoxybenzyl)-N′-(4-phenyl-1,3-thiazole-2-yl)guanidine]
< 0.05 µM	COc1cccc(OC)c1CNC(=N)Nc1nc(C(C)C)cs1 [Example 131, N-(2,6-dimethoxybenzyl)-N′-(4-isopropyl-1,3-thiazole-2-yl)guanidine]
< 0.05 µM	COc1cccc(C)c1CNC(=N)Nc1nc(-c2ccccn2)cs1 [Example 140, N-(2-methoxy-6-methylbenzyl)-N′-(4-pyridine-2-yl-1,3-thiazole-2-yl)guanidine]
< 0.05 µM	COc1cccc(OC)c1CNC(=N)Nc1nc(C(C)(C)C)cs1 [Example 36, N-(4-tert-butyl-1,3-thiazole-2-yl)-N′-(2,6-dimethoxybenzyl)guanidine]
< 0.05 µM	COc1cccc(Cl)c1CNC(=N)Nc1nc(-c2ccccn2)cs1 [Example 133, N-(2-chloro-6-methoxybenzyl)-N′-(4-pyridine-2-yl-1,3-thiazole-2-yl)guanidine]
< 0.05 µM	CCCCS(=O)(=O)NCc1csc(NC(=N)NCc2c(OC)cccc2OC)n1 [Example 157, N-[(2-{[[(2,6-dimethoxybenzyl)amino](imino)methyl]amino}-1,3-thiazole-4-yl)methyl]butane-1-sulfonamide]
< 0.05 µM	COc1cccc(OC)c1CNC(=N)Nc1nc(-c2ccc3ccccc3c2)cs1 [Example 34, N-(2,6-dimethoxybenzyl)-N′-[4-(2-naphthyl)-1,3-thiazole-2-yl]guanidine]

Reference: patent publication US8481576B2 (Abbott GmbH & Co. KG, priority 2004, dated 2013)
